{"source": "paper PMC9137512", "about": "(Antibiotics, 2022)", "key": {"[1]": {"experiment": "Free concentration and protein binding in spiked human serum samples (Table S5)", "details": "for fraction unbound: human, serum, PB", "protocol": "Subsequently, samples were mixed for 10 s, stored in an ultrasonic bath for 10 min at 40 °C, then centrifuged at 8000× g for 5 min. Next, 100 µL of the resulting supernatant was further diluted with 500 µL water with 0.1% formic acid. […] Details are described in the Supplementary Materials (Figures S1–S3).\nTable S5. […] In order to evaluate the\n(a) Spiked human serum samples of 14 patients (8 critically ill and 6 non-critically ill) after calibration with sheep serum.\n(b) Spiked human serum samples of 9 critically ill patients and 6 healthy volunteers after calibration with human serum."}, "[2]": {"experiment": "Stability of aqueous stock solution", "assay_type": "physicochemical", "details": "HPLC-UV", "from_the_text": "(§1) For stability testing, two samples were thawed out and subsequently analyzed. Stability was defined by the time for which samples remained a concentration of > 90% of their baseline concentrations."}, "[3]": {"details": "cited from earlier work", "description": "Efficacy is associated with the area under the concentration-time curve (AUC) divided by the minimal inhibitory concentration (MIC). […] Standard in vitro me ..."}, "[4]": {"experiment": "Stability of dalbavancin in human serum", "details": "serum samples, HPLC-UV", "from_the_text": "as §1"}, "[5]": {"details": "S5b, serum of patient 16 (critically ill) spiked 50 mg/L, measured c 56.7 mg/L, calibration with human serum"}, "[6]": {"details": "S5b, serum of patient 17 (critically ill) spiked 200 mg/L, measured c 222 mg/L, calibration with human serum"}, "[7]": {"details": "S5b, serum of patient 18 (critically ill) spiked 50 mg/L, measured c 57.6 mg/L, calibration with human serum"}, "[8]": {"details": "S5b, serum of patient 18 (critically ill) spiked 200 mg/L, measured c 242 mg/L, calibration with human serum"}, "[9]": {"details": "S5b, serum of patient 19 (critically ill) spiked 50 mg/L, measured c 51.1 mg/L, calibration with human serum"}, "[10]": {"details": "S5b, serum of patient 19 (critically ill) spiked 200 mg/L, measured c 197 mg/L, calibration with human serum"}, "[11]": {"details": "S5b, serum of patient 20 (critically ill) spiked 50 mg/L, measured c 54.5 mg/L, calibration with human serum"}, "[12]": {"details": "S5b, serum of patient 20 (critically ill) spiked 200 mg/L, measured c 254 mg/L, calibration with human serum"}, "[13]": {"details": "S5b, serum of patient 21 (critically ill) spiked 50 mg/L, measured c 55.2 mg/L, calibration with human serum"}, "[14]": {"details": "S5b, serum of patient 23 (critically ill) spiked 50 mg/L, measured c 56.0 mg/L, calibration with human serum"}}}
{"smiles": "CN[C@H]1C(=O)N[C@@H]2Cc3ccc(cc3)Oc3cc4cc(c3O[C@@H]3O[C@H](C(=O)O)[C@@H](O)[C@H](O)[C@H]3NC(=O)CCCCCCCCC(C)C)Oc3ccc(cc3Cl)[C@@H](O)[C@@H]3NC(=O)[C@H](NC(=O)[C@@H]4NC(=O)[C@@H](NC2=O)c2cc(cc(O)c2Cl)Oc2cc1ccc2O)c1ccc(O)c(c1)-c1c(O[C@H]2O[C@H](CO)[C@@H](O)[C@H](O)[C@@H]2O)cc(O)cc1[C@@H](C(=O)NCCCN(C)C)NC3=O", "note": "[dalbavancin, Dalbavancin]", "values": [{"measurement": "fc", "setting": "[1]; S5b, serum of 29 (healthy volunteer) spiked 200 mg/L, measured c 207 mg/L, calibration with human serum", "value": 4.6, "unit": "mg/L"}, {"measurement": "fc", "setting": "[1]; S5b, serum of patient 15 (critically ill) spiked 50 mg/L, measured c 56.7 mg/L, Nanosep SPE, HPLC-UV, calibration with human serum", "value": 1.9, "unit": "mg/L"}, {"measurement": "fc", "setting": "[1]; S5b, serum of patient 15 (critically ill) spiked 200 mg/L, measured c 239 mg/L, calibration with human serum", "value": 9.8, "unit": "mg/L"}, {"measurement": "fc", "setting": "[1]; [5]", "value": 1.8, "unit": "mg/L"}, {"measurement": "fc", "setting": "[1]; S5b, serum of patient 16 (critically ill) spiked 200 mg/L, measured c 233 mg/L, calibration with human serum", "value": 12.1, "unit": "mg/L"}, {"measurement": "fc", "setting": "[1]; S5b, serum of patient 17 (critically ill) spiked 50 mg/L, measured c 52.5 mg/L, calibration with human serum", "value": "< 1.0", "unit": "mg/L"}, {"measurement": "fc", "setting": "[1]; [6]", "value": 8.3, "unit": "mg/L"}, {"measurement": "fc", "setting": "[1]; [7]", "value": 1.3, "unit": "mg/L"}, {"measurement": "fc", "setting": "[1]; [8]", "value": 8.8, "unit": "mg/L"}, {"measurement": "fc", "setting": "[1]; [9]", "value": 1.2, "unit": "mg/L"}, {"measurement": "fc", "setting": "[1]; [10]", "value": 7.1, "unit": "mg/L"}, {"measurement": "fc", "setting": "[1]; [11]", "value": 1.7, "unit": "mg/L"}, {"measurement": "fc", "setting": "[1]; [12]", "value": 8.2, "unit": "mg/L"}, {"measurement": "fc", "setting": "[1]; [13]", "value": 1.6, "unit": "mg/L"}, {"measurement": "fc", "setting": "[1]; S5b, serum of patient 21 (critically ill) spiked 200 mg/L, measured c 230 mg/L, calibration with human serum", "value": 11.0, "unit": "mg/L"}, {"measurement": "fc", "setting": "[1]; S5b, serum of patient 22 (critically ill) spiked 50 mg/L, measured c 59.8 mg/L, calibration with human serum", "value": 2.5, "unit": "mg/L"}, {"measurement": "fc", "setting": "[1]; S5b, serum of patient 22 (critically ill) spiked 200 mg/L, measured c 266 mg/L, calibration with human serum", "value": 16.5, "unit": "mg/L"}, {"measurement": "fc", "setting": "[1]; [14]", "value": 2.2, "unit": "mg/L"}, {"measurement": "fc", "setting": "[1]; S5b, serum of patient 23 (critically ill) spiked 200 mg/L, measured c 233 mg/L, calibration with human serum", "value": 9.6, "unit": "mg/L"}, {"measurement": "fraction unbound", "setting": "[1]", "value": 0.05}, {"measurement": "fraction unbound", "setting": "[1]; S5a, serum of patient 1 (critically ill) spiked 50 mg/L, measured c 53.5 mg/L, calibration with sheep serum", "value": 0.03}, {"measurement": "fraction unbound", "setting": "[1]; S5a, serum of patient 1 (critically ill) spiked 200 mg/L, measured c 201 mg/L, calibration with sheep serum", "value": 0.04}, {"measurement": "fraction unbound", "setting": "[1]; S5a, serum of patient 2 (critically ill) spiked 50 mg/L, measured c 53.6 mg/L, calibration with sheep serum", "value": 0.03}, {"measurement": "fraction unbound", "setting": "[1]; S5a, serum of patient 3 (critically ill) spiked 200 mg/L, measured c 209 mg/L, calibration with sheep serum", "value": 0.04}, {"measurement": "fraction unbound", "setting": "[1]; S5a, serum of patient 4 (critically ill) spiked 50 mg/L, measured c 54.2 mg/L, calibration with sheep serum", "value": 0.03}, {"measurement": "fraction unbound", "setting": "[1]; S5a, serum of patient 4 (critically ill) spiked 200 mg/L, measured c 212 mg/L, calibration with sheep serum", "value": 0.04}, {"measurement": "fraction unbound", "setting": "[1]; S5a, serum of patient 5 (critically ill) spiked 50 mg/L, measured c 53.0 mg/L, calibration with sheep serum", "value": 0.04}, {"measurement": "fraction unbound", "setting": "[1]; S5a, serum of patient 6 (critically ill) spiked 50 mg/L, measured c 50.4 mg/L, calibration with sheep serum", "value": 0.03}, {"measurement": "fraction unbound", "setting": "[1]; S5a, serum of patient 8 (critically ill) spiked 50 mg/L, measured c 54.3 mg/L, calibration with sheep serum", "value": 0.03}, {"measurement": "fraction unbound", "setting": "[1]; S5a, serum of patient 8 (critically ill) spiked 200 mg/L, measured c 201 mg/L, calibration with sheep serum", "value": 0.04}, {"measurement": "fraction unbound", "setting": "[1]; S5a, serum of patient 9 (non-critically ill) spiked 200 mg/L, measured c 177 mg/L, calibration with sheep serum", "value": 0.02}, {"measurement": "fraction unbound", "setting": "[1]; S5a, serum of patient 10 (non-critically ill) spiked 200 mg/L, measured c 180 mg/L, calibration with sheep serum", "value": 0.02}, {"measurement": "fraction unbound", "setting": "[1]; S5a, serum of patient 11 (non-critically ill) spiked 200 mg/L, measured c 177 mg/L, calibration with sheep serum", "value": 0.02}, {"measurement": "fraction unbound", "setting": "[1]; S5a, serum of patient 12 (non-critically ill) spiked 200 mg/L, measured c 195 mg/L, calibration with sheep serum", "value": 0.02}, {"measurement": "fraction unbound", "setting": "[1]; S5a, serum of patient 13 (non-critically ill) spiked 50 mg/L, measured c 53.0 mg/L, calibration with sheep serum", "value": 0.02}, {"measurement": "fraction unbound", "setting": "[1]; S5a, serum of patient 13 (non-critically ill) spiked 200 mg/L, measured c 214 mg/L, calibration with sheep serum", "value": 0.03}, {"measurement": "fraction unbound", "setting": "[1]; S5a, serum of patient 14 (non-critically ill) spiked 50 mg/L, measured c 50.0 mg/L, calibration with sheep serum", "value": 0.02}, {"measurement": "fraction unbound", "setting": "[1]; S5a, serum of patient 14 (non-critically ill) spiked 200 mg/L, measured c 208 mg/L, calibration with sheep serum", "value": 0.02}, {"measurement": "fraction unbound", "setting": "[1]; S5b, serum of 24 (healthy volunteer) spiked 50 mg/L, measured c 46.1 mg/L, calibration with human serum", "value": 0.03}, {"measurement": "fraction unbound", "setting": "[1]; S5b, serum of 24 (healthy volunteer) spiked 200 mg/L, measured c 184 mg/L, calibration with human serum", "value": 0.02}, {"measurement": "fraction unbound", "setting": "[1]; S5b, serum of 25 (healthy volunteer) spiked 50 mg/L, measured c 45.8 mg/L, calibration with human serum", "value": 0.03}, {"measurement": "fraction unbound", "setting": "[1]; S5b, serum of 25 (healthy volunteer) spiked 200 mg/L, measured c 197 mg/L, calibration with human serum", "value": 0.03}, {"measurement": "fraction unbound", "setting": "[1]; S5b, serum of 26 (healthy volunteer) spiked 50 mg/L, measured c 52.6 mg/L, calibration with human serum", "value": 0.03}, {"measurement": "fraction unbound", "setting": "[1]; S5b, serum of patient 15 (critically ill) spiked 50 mg/L, measured c 56.7 mg/L, calibration with human serum", "value": 0.03}, {"measurement": "fraction unbound", "setting": "[1]; [5]", "value": 0.04}, {"measurement": "fraction unbound", "setting": "[1]; [6]", "value": 0.04}, {"measurement": "fraction unbound", "setting": "[1]; [7]", "value": 0.03}, {"measurement": "fraction unbound", "setting": "[1]; [8]", "value": 0.04}, {"measurement": "fraction unbound", "setting": "[1]; [9]", "value": 0.02}, {"measurement": "fraction unbound", "setting": "[1]; [10]", "value": 0.04}, {"measurement": "fraction unbound", "setting": "[1]; [11]", "value": 0.03}, {"measurement": "fraction unbound", "setting": "[1]; [12]", "value": 0.04}, {"measurement": "fraction unbound", "setting": "[1]; [13]", "value": 0.03}, {"measurement": "fraction unbound", "setting": "[1]; [14]", "value": 0.04}, {"measurement": "stability time (>90% of baseline concentration)", "setting": "[2]; frozen at −80 °C", "value": "at least 12 months"}, {"measurement": "stability time (>90% of baseline concentration)", "setting": "[2]; refrigerated (2–8 °C)", "value": "at least 3 months"}, {"measurement": "elimination half-life", "setting": "[3]; approximately", "value": "> 14", "unit": "days"}, {"measurement": "clearance", "setting": "[3]", "value": 0.05, "unit": "L/h"}, {"measurement": "stability time (>90% of baseline concentration)", "setting": "[4]; frozen at −20 °C", "value": "at least 1 month"}, {"measurement": "stability time (>90% of baseline concentration)", "setting": "[4]; frozen at −80 °C", "value": "at least 12 months"}, {"measurement": "stability time (>90% of baseline concentration)", "setting": "[4]; refrigerated (2–8 °C)", "value": "at least 96 h"}, {"measurement": "stability time (>90% of baseline concentration)", "setting": "[4]; room temperature", "value": "≥ 48", "unit": "h"}]}
